Data as given in ChEMBL document CHEMBL1201862, “PubChem BioAssay data set” (2004).
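These data come from cells grown in 96-well plates and exposed to compound for 48 hours at five concentrations. GI50 marks 50% less growth.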 Active and inactive are the calls of the source. Cut-off read from the data, not from the text of the source: active = GI50 up to about 1.1 µM and inactive = higher.

Tests used:
Assay in all cases: NCI-60 cell line screen, 48 h
COLO 205 = system: COLO 205
U-251 = system: U-251
EKVX = system: EKVX
CCRF-CEM = system: CCRF-CEM
UO-31 = system: UO-31
Hs-578T = system: Hs-578T
A498 = system: A498
OVCAR-8 = system: OVCAR-8
SW-620 = system: SW-620
M14 = system: M14
UACC-257 = system: UACC-257
UACC-62 = system: UACC-62
NCI-H460 = system: NCI-H460
TK-10 = system: TK-10
NCI-H23 = system: NCI-H23
SF-295 = system: SF-295
NCI-H226 = system: NCI-H226
RPMI-8226 = system: RPMI-8226
HT-29 = system: HT-29
SF-268 = system: SF-268
SF-539 = system: SF-539
T47D = system: T47D
HOP-92 = system: HOP-92
OVCAR-5 = system: OVCAR-5
HL-60 = system: HL-60
MDA-MB-435 = system: MDA-MB-435
SR = system: SR
CAKI-1 = system: CAKI-1
SK-MEL-28 = system: SK-MEL-28
SK-MEL-5 = system: SK-MEL-5
786-0 = system: 786-0
K562 = system: K562
MOLT-4 = system: MOLT-4
SNB-75 = system: SNB-75
NCI-H522 = system: NCI-H522
A549 = system: A549
ACHN = system: ACHN
IGROV-1 = system: IGROV-1
HCT-15 = system: HCT-15
MDA-MB-231 = system: MDA-MB-231
BT-549 = system: BT-549
SNB-19 = system: SNB-19
SK-MEL-2 = system: SK-MEL-2
Malme-3M = system: Malme-3M
DU-145 = system: DU-145
MDA-N = system: MDA-N
SN12C = system: SN12C
PC-3 = system: PC-3
SK-OV-3 = system: SK-OV-3
HCT-116 = system: HCT-116
OVCAR-4 = system: OVCAR-4
RXF 393 = system: RXF 393
NCI/ADR-RES = system: NCI/ADR-RES
KM12 = system: KM12
HCC 2998 = system: HCC 2998
LOX IMVI = system: LOX IMVI
OVCAR-3 = system: OVCAR-3
MCF7 = system: MCF7
HOP-62 = system: HOP-62

NCCC1(N)CCNCC1
GI50 (COLO 205): > 100 µM (inactive) | GI50 (U-251): > 100 µM (inactive) | GI50 (EKVX): > 100 µM (inactive) | GI50 (CCRF-CEM): > 100 µM (inactive) | GI50 (UO-31): > 100 µM (inactive) | GI50 (Hs-578T): > 100 µM (inactive) | GI50 (A498): > 100 µM (inactive) | GI50 (OVCAR-8): > 100 µM (inactive) | GI50 (SW-620): > 100 µM (inactive) | GI50 (M14): > 100 µM (inactive) | GI50 (UACC-257): > 100 µM (inactive) | GI50 (UACC-62): > 100 µM (inactive) | GI50 (NCI-H460): > 100 µM (inactive) | GI50 (TK-10): > 100 µM (inactive) | GI50 (NCI-H23): > 100 µM (inactive) | GI50 (SF-295): > 100 µM (inactive) | GI50 (NCI-H226): > 100 µM (inactive) | GI50 (RPMI-8226): > 100 µM (inactive) | GI50 (HT-29): > 100 µM (inactive) | GI50 (SF-268): > 100 µM (inactive) | GI50 (SF-539): > 100 µM (inactive) | GI50 (T47D): > 100 µM (inactive) | GI50 (HOP-92): < 0.01 µM (active) | GI50 (OVCAR-5): > 100 µM (inactive) | GI50 (HL-60): > 100 µM (inactive) | GI50 (MDA-MB-435): > 100 µM (inactive) | GI50 (SR): > 100 µM (inactive) | GI50 (CAKI-1): > 100 µM (inactive) | GI50 (SK-MEL-28): 48.4 µM (inactive) | GI50 (SK-MEL-5): > 100 µM (inactive) | GI50 (786-0): > 100 µM (inactive) | GI50 (K562): > 100 µM (inactive) | GI50 (MOLT-4): > 100 µM (inactive) | GI50 (SNB-75): 13.7 µM (inactive) | GI50 (NCI-H522): > 100 µM (inactive) | GI50 (A549): > 100 µM (inactive) | GI50 (ACHN): > 100 µM (inactive) | GI50 (IGROV-1): > 100 µM (inactive) | GI50 (HCT-15): > 100 µM | GI50 (MDA-MB-231): > 100 µM (inactive) | GI50 (BT-549): > 100 µM (inactive) | GI50 (SNB-19): > 100 µM (inactive) | GI50 (SK-MEL-2): > 100 µM (inactive) | GI50 (Malme-3M): > 100 µM (inactive) | GI50 (DU-145): > 100 µM (inactive) | GI50 (MDA-N): > 100 µM (inactive) | GI50 (SN12C): > 100 µM (inactive) | GI50 (PC-3): > 100 µM (inactive) | GI50 (SK-OV-3): > 100 µM (inactive) | GI50 (HCT-116): > 100 µM (inactive) | GI50 (OVCAR-4): > 100 µM (inactive) | GI50 (RXF 393): > 100 µM (inactive) | GI50 (NCI/ADR-RES): > 100 µM (inactive) | GI50 (KM12): > 100 µM (inactive)

NC1CC(N)c2c(Br)sc(Br)c21 (stereo not given)
GI50 (COLO 205): > 100 µM (inactive) | GI50 (U-251): > 100 µM (inactive) | GI50 (EKVX): > 100 µM (inactive) | GI50 (CCRF-CEM): > 100 µM (inactive) | GI50 (UO-31): 41.4 µM (inactive) | GI50 (Hs-578T): > 100 µM (inactive) | GI50 (A498): > 100 µM (inactive) | GI50 (OVCAR-8): 55.6 µM (inactive) | GI50 (SW-620): 62.2 µM (inactive) | GI50 (M14): > 100 µM (inactive) | GI50 (UACC-257): > 100 µM (inactive) | GI50 (UACC-62): > 100 µM (inactive) | GI50 (NCI-H460): > 100 µM (inactive) | GI50 (TK-10): > 100 µM (inactive) | GI50 (NCI-H23): > 100 µM (inactive) | GI50 (SF-295): 98.9 µM (inactive) | GI50 (NCI-H226): 77.1 µM (inactive) | GI50 (HCC 2998): 55.8 µM (inactive) | GI50 (HT-29): > 100 µM (inactive) | GI50 (SF-268): 67.3 µM (inactive) | GI50 (SF-539): > 100 µM (inactive) | GI50 (T47D): 54 µM (inactive) | GI50 (HOP-92): 28.6 µM (inactive) | GI50 (OVCAR-5): > 100 µM (inactive) | GI50 (MDA-MB-435): > 100 µM (inactive) | GI50 (SR): 59.4 µM (inactive) | GI50 (CAKI-1): > 100 µM (inactive) | GI50 (SK-MEL-28): > 100 µM (inactive) | GI50 (SK-MEL-5): > 100 µM (inactive) | GI50 (786-0): 95.3 µM (inactive) | GI50 (K562): > 100 µM (inactive) | GI50 (MOLT-4): 67.5 µM (inactive) | GI50 (LOX IMVI): 58.1 µM (inactive) | GI50 (NCI-H522): 44.1 µM (inactive) | GI50 (A549): 97.7 µM (inactive) | GI50 (OVCAR-3): > 100 µM (inactive) | GI50 (MCF7): > 100 µM (inactive) | GI50 (ACHN): > 100 µM (inactive) | GI50 (IGROV-1): 39.1 µM (inactive) | GI50 (HCT-15): > 100 µM | GI50 (MDA-MB-231): > 100 µM (inactive) | GI50 (BT-549): > 100 µM (inactive) | GI50 (SK-MEL-2): > 100 µM (inactive) | GI50 (Malme-3M): > 100 µM (inactive) | GI50 (DU-145): > 100 µM (inactive) | GI50 (MDA-N): > 100 µM (inactive) | GI50 (SN12C): > 100 µM (inactive) | GI50 (SK-OV-3): > 100 µM (inactive) | GI50 (HCT-116): 87.9 µM (inactive) | GI50 (OVCAR-4): > 100 µM (inactive) | GI50 (NCI/ADR-RES): > 100 µM (inactive) | GI50 (KM12): > 100 µM (inactive) | GI50 (HOP-62): 86.1 µM (inactive)

O=C(NCCO)c1ccc(Cl)cc1
GI50 (U-251): > 100 µM (inactive) | GI50 (EKVX): > 100 µM (inactive) | GI50 (CCRF-CEM): 26.1 µM (inactive) | GI50 (UO-31): > 100 µM (inactive) | GI50 (Hs-578T): > 100 µM (inactive) | GI50 (A498): > 100 µM (inactive) | GI50 (OVCAR-8): > 100 µM (inactive) | GI50 (SW-620): > 100 µM (inactive) | GI50 (M14): > 100 µM (inactive) | GI50 (UACC-257): > 100 µM (inactive) | GI50 (UACC-62): > 100 µM (inactive) | GI50 (NCI-H460): > 100 µM (inactive) | GI50 (TK-10): > 100 µM (inactive) | GI50 (NCI-H23): > 100 µM (inactive) | GI50 (SF-295): > 100 µM (inactive) | GI50 (NCI-H226): > 100 µM (inactive) | GI50 (HCC 2998): > 100 µM (inactive) | GI50 (HT-29): > 100 µM (inactive) | GI50 (SF-268): > 100 µM (inactive) | GI50 (T47D): > 100 µM (inactive) | GI50 (HOP-92): > 100 µM (inactive) | GI50 (OVCAR-5): > 100 µM (inactive) | GI50 (MDA-MB-435): > 100 µM (inactive) | GI50 (SR): > 100 µM (inactive) | GI50 (CAKI-1): > 100 µM (inactive) | GI50 (SK-MEL-28): > 100 µM (inactive) | GI50 (SK-MEL-5): > 100 µM (inactive) | GI50 (786-0): > 100 µM (inactive) | GI50 (K562): > 100 µM (inactive) | GI50 (MOLT-4): > 100 µM (inactive) | GI50 (LOX IMVI): > 100 µM (inactive) | GI50 (SNB-75): > 100 µM (inactive) | GI50 (NCI-H522): > 100 µM (inactive) | GI50 (A549): > 100 µM (inactive) | GI50 (OVCAR-3): > 100 µM (inactive) | GI50 (ACHN): > 100 µM (inactive) | GI50 (IGROV-1): > 100 µM (inactive) | GI50 (HCT-15): > 100 µM | GI50 (MDA-MB-231): > 100 µM (inactive) | GI50 (BT-549): > 100 µM (inactive) | GI50 (SNB-19): > 100 µM (inactive) | GI50 (SK-MEL-2): > 100 µM (inactive) | GI50 (Malme-3M): > 100 µM (inactive) | GI50 (DU-145): > 100 µM (inactive) | GI50 (MDA-N): > 100 µM (inactive) | GI50 (SN12C): > 100 µM (inactive) | GI50 (PC-3): > 100 µM (inactive) | GI50 (HCT-116): > 100 µM (inactive) | GI50 (OVCAR-4): > 100 µM (inactive) | GI50 (RXF 393): > 100 µM (inactive) | GI50 (NCI/ADR-RES): > 100 µM (inactive) | GI50 (KM12): > 100 µM (inactive) | GI50 (HOP-62): > 100 µM (inactive)
